Columns and labels:
peritoneal macrophage = test: Phagocytosis of peritoneal macrophage (chick red blood cells); type: in vivo, mice; details: macrophages with phagocytized chick red blood cells per 100; PK 25 mg/kg i.p. daily 5 days, CY 4.5 mg/kg
Experimental: (§1) Male mice weight 18-20 g were used in the experiments and were divided into treated (PK) and control groups. The dosage of PK was 25 mg/kg injected intraperitoneally. The control mice were injected with same volume of normal saline. These injections were repeated daily for 5 days, both treated and control group were injected intraperitoneally with CY. The dosage of CY is 4.5 mg/kg.
Added 0.02 ml of 5% washed chick red blood cell suspension to 0.5 ml of the peritoneal exudates. Shook gently to mix and incubate at 37° C. for 5 minutes. Dipped two cover slips, closed to each other, in the above mixture and incubated for 30 minutes for the migration of the macrophages along the cover slips, fixed and stained with Sharma stain. Examined microscopically for:
Phagocytic rate—number of macrophages with phagocytized chick red blood cells per 100 macrophages counted. Concentration of PK and CY is the same as Example 2. Pharmacological effects are as illustrated by the following table.

lymphocytes = test: Lymphoblastic transformation, 3H-TdR liquid scintillation assay; type: in vivo, mice; details: 3H-TdR incorporation; PK and CY as in Example 4
Experimental: By means of ^3H-TdR liquid scintillation assay technique, the action of PK on lymphoblastic transformation was investigated method:
(1) Experimental procedure of animal is the same as in Example 4.
(2) Lemphoblastic transformation test:
I. Reagents and Conditions for Cell Culture
a. Culture media—RPMI 1640, medium 199 minimal essential medium (Eagle).
b. Buffer—Hepes buffer, the final concentration at 37° C. was 25 mM, to maintain the pH of the medium at 7.31.
c. Serum—generally 15-205 fetal bovine serum was incorporated, for lymphocytes from mice, 5% was used.
d. Gaseous phase—5% CO2 in air.
e. Cell concentration—generally 1-2 c 10^6/ml.
f. Stimulants—20 μl/ml for phytohemagglutinin containing polysaccharide (PHA-M) or 10 μl/ml for polysaccharide-free purified phytohemagglutinin (PHA-P).
II. Measured by Liquid Scintillation
a. The conditions of cell culture are same as above. ^3H-TdR was added after 48 hours of incubation at a final concentration of 1 μCi/ml and continued the incubation for 24 hours.
b. Washed the cells twice with cold normal saline and the erythrocytes were lysed. The intact lymphocytes were again washed once with cold saline. Spun down the lymphocytes and added 2 ml of 10% trichloroacetic acid to precipitate the protein. Washed twice with normal saline. […]
c. Added 4 ml of scintillation fluid to 0.1 ml of the final sample and counted in a liquid scintillation counter. […]

white blood cells = test: White blood cells assay; type: in vivo, mice; details: time of treatment 10 days
Experimental: as §1
Action of PK and CY on white blood cells was investigated by means of white blood cells assay. PK protected white blood cells and phagocytosis from the killing effect of CY. The dosage of PK and CY is the same as in Example 4. Time of treatment is 10 days.

[1] = test system: stem cells of bone marrow; test: Hemopoietic system: CFU-S in mice treated with cyclophosphamide; type: in vivo; details: mice treated with CY with or without PK
Text: Effects of PK on hemopoietic system were investigated.

Interleukin-2 (rIL-2) = test: Effect on Interleukin-2; type: in vivo, mice; details: PK and CY as in Example 4
Text: The method of determination rIL-2 was as same as Example 4.

[2] = Radiolabelled nanoparticle experiment: circulation of 3H-HHT in blood; type: in vivo, mice
Experimental: Mice were used in this experiment. […]
After injection of radioactive ^3H-HHT or PK-^3H-HHT-NP, blood-associated radioactivity was determined.
1 ml of sample of blood was ultracentrifuged at 100,000×g for 1 hour. After discarding the supernatant, the sediment was dispersed again by mechanical stirring in 1.5 ml of distilled water. 100 μl of the sediment or supernatant were then added to 10 ml of scintillation liquid solution. After weighing, the radioactivity of the tissue samples was measured by a scintillation counter.

SMILES	Phagocytic (rate ± SD) (peritoneal macrophage)	CPM ± SD (lymphocytes) [CPM]	Phagocytic (rate ± SD) (white blood cells)	Mean (CFU-S ± SD) [1]	IL-2 (U/ml) (Interleukin-2 (rIL-2))	Circulation 3H-HHT in blood ([2]; 1 hour after administration) [cpm]	Circulation 3H-HHT in blood ([2]; 8 hours after administration) [cpm]	Circulation 3H-HHT in blood ([2]; 24 hours after administration) [cpm]
O=P1(N(CCCl)CCCl)NCCCO1 (centres unmarked) [CY, cyclophosphamide]	8.5 ± 0.90	600 ± 65	6.0 ± 0.70	7.6 ± 1.1	47.5 ± 5.5	–	–	–
COC(=O)C[C@](O)(CCCC(C)(C)O)C(=O)O[C@@H]1C(OC)=C[C@]23CCCN2CCc2cc4c(cc2[C@H]13)OCO4 [^3H-HHT (free)]	–	–	–	–	–	2400	90	60
